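Values below derive from 48-hour exposures of cells grown in 96-well plates, with endpoints linearly interpolated between the two concentrations bracketing the appropriate inhibition level. Definition used: TGI = concentration required for complete inhibition of growth.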
Assays:
Assay in all cases: inhibition of tumour cell growth, NCI panel, 48 h
UACC-257 melanoma = tested on: UACC-257 melanoma
SK-OV-3 ovarian = tested on: SK-OV-3 ovarian
EKVX NSCLC = tested on: EKVX NSCLC
SN12C renal = tested on: SN12C renal
HOP-62 NSCLC = tested on: HOP-62 NSCLC
SR leukemia = tested on: SR leukemia
ACHN renal = tested on: ACHN renal
TK-10 renal = tested on: TK-10 renal
XF 498 CNS = tested on: XF 498 CNS
OVCAR-4 ovarian = tested on: OVCAR-4 ovarian
DMS 273 small cell lung = tested on: DMS 273 small cell lung
A549 NSCLC = tested on: A549 NSCLC
RXF-631 renal = tested on: RXF-631 renal
NCI-H460 lung = tested on: NCI-H460 lung
LOX IMVI melanoma = tested on: LOX IMVI melanoma
M19-MEL melanoma = tested on: M19-MEL melanoma
CAKI-1 renal = tested on: CAKI-1 renal
SK-MEL-5 melanoma = tested on: SK-MEL-5 melanoma
HOP-92 NSCLC = tested on: HOP-92 NSCLC
HCT-15 colon = tested on: HCT-15 colon
CCRF-CEM leukemia = tested on: CCRF-CEM leukemia
NCI-H23 lung = tested on: NCI-H23 lung
OVCAR-5 ovarian = tested on: OVCAR-5 ovarian
IGROV1 ovarian = tested on: IGROV1 ovarian
SK-MEL-28 melanoma = tested on: SK-MEL-28 melanoma
HT29 colon = tested on: HT29 colon
SNB-78 CNS = tested on: SNB-78 CNS
786-0 renal = tested on: 786-0 renal
HL-60(TB) leukemia = tested on: HL-60(TB) leukemia
U251 CNS = tested on: U251 CNS
RPMI-8226 leukemia = tested on: RPMI-8226 leukemia
DLD-1 colon = tested on: DLD-1 colon
OVCAR-3 ovarian = tested on: OVCAR-3 ovarian
DMS 114 small cell lung = tested on: DMS 114 small cell lung
K-562 leukemia = tested on: K-562 leukemia
KM12 colon = tested on: KM12 colon
SW-620 colon = tested on: SW-620 colon
OVCAR-8 ovarian = tested on: OVCAR-8 ovarian
UO-31 renal = tested on: UO-31 renal
MOLT-4 leukemia = tested on: MOLT-4 leukemia
HCT-116 colon = tested on: HCT-116 colon
NCI-H226 lung = tested on: NCI-H226 lung
COLO 205 colon = tested on: COLO 205 colon
MALME-3M melanoma = tested on: MALME-3M melanoma
UACC-62 melanoma = tested on: UACC-62 melanoma
SNB-75 CNS = tested on: SNB-75 CNS
SNB-19 CNS = tested on: SNB-19 CNS
M14 melanoma = tested on: M14 melanoma
SF-295 CNS = tested on: SF-295 CNS
SF-268 CNS = tested on: SF-268 CNS
RXF 393 renal = tested on: RXF 393 renal
HCC-2998 colon = tested on: HCC-2998 colon
KM20L2 colon = tested on: KM20L2 colon
NCI-H522 lung = tested on: NCI-H522 lung
LXFL 529 NSCLC = tested on: LXFL 529 NSCLC
SF-539 CNS = tested on: SF-539 CNS
SK-MEL-2 melanoma = tested on: SK-MEL-2 melanoma

NC1=C(NC(=O)Cc2ccc(F)cc2)C(=O)c2ccccc2C1=O gave a TGI (UACC-257 melanoma) of over 100 µM, a TGI (SK-OV-3 ovarian) of 56.1 µM and a TGI (EKVX NSCLC) of over 100 µM. For the same molecule, the TGI (SN12C renal) was over 100 µM, the TGI (HOP-62 NSCLC) was over 87.6 µM and the TGI (SR leukemia) was over 100 µM. It also gave a TGI (ACHN renal) of over 100 µM, a TGI (TK-10 renal) of 59 µM and a TGI (XF 498 CNS) of over 100 µM. The TGI (OVCAR-4 ovarian) was over 100 µM, the TGI (DMS 273 small cell lung) was over 100 µM and the TGI (A549 NSCLC) was over 100 µM. It also gave a TGI (RXF-631 renal) of over 100 µM, a TGI (NCI-H460 lung) of over 100 µM and a TGI (LOX IMVI melanoma) of 31.4 µM. It also gave a TGI (M19-MEL melanoma) of 45.4 µM, a TGI (CAKI-1 renal) of over 100 µM and a TGI (SK-MEL-5 melanoma) of over 100 µM. It also gave a TGI (HOP-92 NSCLC) of 64.3 µM, a TGI (HCT-15 colon) of over 100 µM and a TGI (CCRF-CEM leukemia) of over 100 µM. For the same molecule, the TGI (NCI-H23 lung) was 27.9 µM, the TGI (OVCAR-5 ovarian) was over 100 µM and the TGI (IGROV1 ovarian) was 59.4 µM. The TGI (SK-MEL-28 melanoma) was over 100 µM, the TGI (HT29 colon) was over 100 µM and the TGI (SNB-78 CNS) was 65.1 µM. For the same molecule, the TGI (786-0 renal) was over 100 µM, the TGI (HL-60(TB) leukemia) was 98.6 µM and the TGI (U251 CNS) was 46.8 µM. For the same molecule, the TGI (RPMI-8226 leukemia) was over 100 µM, the TGI (DLD-1 colon) was over 71.4 µM and the TGI (OVCAR-3 ovarian) was over 100 µM. The TGI (DMS 114 small cell lung) was 27 µM, the TGI (K-562 leukemia) was over 100 µM and the TGI (KM12 colon) was over 100 µM. For the same molecule, the TGI (SW-620 colon) was over 100 µM, the TGI (OVCAR-8 ovarian) was 98.5 µM and the TGI (UO-31 renal) was over 100 µM. The TGI (MOLT-4 leukemia) was over 100 µM, the TGI (HCT-116 colon) was over 91.1 µM and the TGI (NCI-H226 lung) was over 100 µM. It also gave a TGI (COLO 205 colon) of over 100 µM, a TGI (MALME-3M melanoma) of over 100 µM and a TGI (UACC-62 melanoma) of over 100 µM. The TGI (SNB-75 CNS) was 52.5 µM, the TGI (SNB-19 CNS) was 59 µM and the TGI (M14 melanoma) was over 100 µM. The TGI (SF-295 CNS) was over 91.6 µM, the TGI (SF-268 CNS) was over 100 µM and the TGI (RXF 393 renal) was 57 µM. It also gave a TGI (HCC-2998 colon) of over 100 µM, a TGI (KM20L2 colon) of over 100 µM and a TGI (NCI-H522 lung) of over 70.1 µM. The TGI (LXFL 529 NSCLC) was over 100 µM, the TGI (SF-539 CNS) was over 100 µM and the TGI (SK-MEL-2 melanoma) was over 100 µM.

From PubChem BioAssay (NCI)
